In ChEMBL document CHEMBL4219064, “Identification of novel quinazolinedione derivatives as RORγt inverse agonist” (Bioorg Med Chem, 2018):
pIC50: −log10 of the molar value. Converted amounts (≈) assume the structure as drawn.

Columns and labels:
[1] = Kinetic solubility of the compound in second fluid of disintegration test of the Japanese Pharmacopoeia at pH 6.8 by HPLC analysis
[2] = Lipophilicity, log D of the compound at pH 7.4; format: physicochemical; details: buffer
[3] = AUC in rat at 1 mg/kg, po; format: ADME, organism-based; details: in vivo
[4] = Clearance in rat at 1 mg/kg, po or 0.1 mg/kg, iv; format: ADME, organism-based; details: in vivo
[5] = Oral bioavailability in rat at 1 mg/kg; format: ADME, organism-based; details: in vivo
Rattus norvegicus = assay: In vivo inverse agonist activity at RORgammat in po dosed Lewis rat experimental autoimmune encephalomyelitis model assessed as inhibition of IL-17A mRNA levels in popliteal lymph nodes administered twice daily for 5 days by qRT-PCR analysis; format: functional; details: 120 h, read-out: MED
tissue or blood = details: Rattus norvegicus, Lewis
Description: Inverse agonist activity at RORgammat in Lewis rat whole blood assessed as inhibition of IL-17A production incubated for 1 hr followed by PMA/ionomycin stimulation measured after 24 hrs by ELISA

[6] = biological target: T1, Nuclear receptor ROR-gamma (Homo sapiens, UniProt P51449); assay: Displacement of BODIPY-labeled-(R)-N-(2-(3,5-difluoro-4-(trimethylsilyl)phenylamino)-1-(4-(methoxymethyl)phenyl)-2-oxoethyl)-5-(2-((1-(difluoroboryl)-3,5-dimethyl-1H-pyrrol-2-yl)methylene)-2H-pyrrol-5-yl)pentanamide from human His-tagged RORgammat after 20 mins by TR-FRET assay
T1 sequence (P51449 whole entry): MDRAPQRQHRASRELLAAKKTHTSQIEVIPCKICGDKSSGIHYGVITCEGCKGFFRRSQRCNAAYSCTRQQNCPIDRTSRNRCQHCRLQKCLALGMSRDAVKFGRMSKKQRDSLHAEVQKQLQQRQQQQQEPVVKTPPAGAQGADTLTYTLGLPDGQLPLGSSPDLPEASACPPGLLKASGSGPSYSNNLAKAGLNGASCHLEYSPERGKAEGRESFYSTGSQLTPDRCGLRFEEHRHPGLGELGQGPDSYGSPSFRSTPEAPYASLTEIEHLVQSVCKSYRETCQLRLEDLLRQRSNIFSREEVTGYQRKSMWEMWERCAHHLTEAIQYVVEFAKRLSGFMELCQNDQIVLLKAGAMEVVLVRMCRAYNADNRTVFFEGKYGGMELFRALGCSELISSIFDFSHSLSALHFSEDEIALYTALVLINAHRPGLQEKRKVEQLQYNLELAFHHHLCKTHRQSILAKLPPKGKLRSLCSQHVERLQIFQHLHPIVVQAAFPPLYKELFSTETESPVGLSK

[7] = biological target: T1, Nuclear receptor ROR-gamma; assay: Inverse agonist activity at RORgammat (unknown origin) expressed in human Jurkat cells assessed as inhibition of transcriptional activity after overnight incubation by human IL-17 ROR response element driven-bright-glo luciferase reporter gene assay; format: cell-based

| AUC [3] | clearance [4] | bioavailability [5] | SMILES | solubility kinetic [1] | further results |
| --- | --- | --- | --- | --- | --- |
|  |  |  | CCN1C(=O)C(C)Oc2cc(NC(=O)CC(C)CC(=O)Nc3ccc(C#N)c(Cl)c3)ccc21 (racemic) | 23 µg/mL (≈ 49 µM) | logD [2]: 2.66 |
|  |  |  | CCn1ccc2cc(NC(=O)CC(C)CC(=O)Nc3ccc(C#N)c(Cl)c3)ccc21 (racemic) | 0.1 µg/mL (≈ 0.236 µM) |  |
| 33 ng·h/mL | 28.4 mL/min/kg | 5.5% | CCn1c(=O)c2cc(NC(=O)CC(C)CC(=O)Nc3ccc(C#N)c(Cl)c3)ccc2n(CC2CC2)c1=O (racemic) |  |  |
| 10 ng·h/mL | 44 mL/min/kg | 2.7% | CCn1c(=O)n(CC2CC2)c(=O)c2cc(NC(=O)CC(C)CC(=O)Nc3ccc(C#N)c(Cl)c3)ccc21 (racemic) |  |  |
| 106 ng·h/mL | 11.2 mL/min/kg | 7.1% | CC(CC(=O)Nc1ccc(C#N)c(Cl)c1)CC(=O)Nc1ccc2c(c1)c(=O)n(CC1CC1)c(=O)n2CC1CC1 (racemic) |  | minimal effective dose (Rattus norvegicus): 100 mg/kg; pIC50 (tissue or blood): 7.24 |
|  |  |  | CCn1c2c(c3cc(NC(=O)CC(C)CC(=O)Nc4ccc(C#N)cc4)ccc31)CCCC2 (racemic) | 0.06 µg/mL (≈ 0.136 µM) |  |
|  |  |  | CC(CC(=O)Nc1ccc(C#N)cc1)CC(=O)Nc1ccc2[nH]c3c(c2c1)CCCC3 (racemic) | 0.19 µg/mL (≈ 0.458 µM) |  |
|  |  |  | CCn1c(=O)oc2cc(NC(=O)CC(C)CC(=O)Nc3ccc(C#N)c(Cl)c3)ccc21 (racemic) | 0.9 µg/mL (≈ 2.04 µM) |  |
|  |  |  | CCN1C(=O)COc2cc(NC(=O)CC(C)CC(=O)Nc3ccc(C#N)c(Cl)c3)ccc21 (racemic) | 12 µg/mL (≈ 26.4 µM) |  |
|  |  |  | CCn1c2ccccc2c2cc(NC(=O)CC(C)CC(=O)Nc3ccc(C#N)c(Cl)c3)ccc21 (racemic) | 0.15 µg/mL (≈ 0.317 µM) | logD [2]: 3.76 |
|  |  |  | CCC1Oc2cc(NC(=O)CC(C)CC(=O)Nc3ccc(C#N)c(Cl)c3)ccc2N(CC)C1=O (racemic) | 5.6 µg/mL (≈ 11.6 µM) |  |
|  |  |  | CCn1c2ccccc2c2cc(NC(=O)CC(C)CC(=O)Nc3ccccc3C#N)ccc21 (racemic) |  | pIC50 [6]: < 5.00; pIC50 [7]: < 4.52 |

| SMILES | AUC [3] | clearance [4] | bioavailability [5] | solubility kinetic [1] | further results |
| --- | --- | --- | --- | --- | --- |
| CCn1c(=O)c2cc(NC(=O)CC(C)CC(=O)Nc3ccc(C#N)c(Cl)c3)ccc2n(CC)c1=O (racemic) | 39 ng·h/mL | 26.8 mL/min/kg | 6.2% | 42 µg/mL (≈ 84.7 µM) | logD [2]: 2.99 |
